According to ChEMBL document CHEMBL1155555, “Matemone, a new bioactive bromine-containing oxindole alkaloid from the indian ocean sponge Iotrochota purpurea” (J Nat Prod, 2000):
Converted amounts (≈) assume the structure as drawn. The source made the active and inactive calls. No cut-off for these calls is given here.

Key:
[1] = Cytotoxicity against human NSCLC-N6 L16; type: functional
Staphylococcus aureus [2] = experiment: Antibacterial activity against Staphylococcus aureus at 200 ug/disk after 18 hrs by paper disk agar diffusion assay; type: functional; conditions: read-out: IZ
Staphylococcus aureus [3] = experiment: Antibacterial activity against Staphylococcus aureus at 50 ug/disk after 18 hrs by paper disk agar diffusion assay; type: functional; conditions: read-out: IZ
DU-145 = experiment: Cytotoxicity against human DU145; type: functional, cell-based
Staphylococcus aureus [4] = experiment: Antibacterial activity against Staphylococcus aureus at 100 ug/disk after 18 hrs by paper disk agar diffusion assay; type: functional; conditions: read-out: IZ
MIA PaCa-2 = experiment: Cytotoxicity against human PaCa2; type: functional, cell-based
Paracentrotus lividus = experiment: Inhibition of sea urchin egg division
DNA = experiment: Binding affinity to calf thymus DNA by DNA intercalating assay relative to ethidium bromide; type: nucleic-acid assay; conditions: Bos taurus
Candida albicans = experiment: Antifungal activity against Candida albicans at 200 ug/disk after 18 hrs by paper disk agar diffusion assay; type: functional, organism-based

IC50 (Paracentrotus lividus): 35 µg/mL (≈ 129 µM)
Activity (DNA): 40%
SMILES: COC1(CO)Nc2cc(Br)ccc2C1=O (centres undefined) [MATEMONE]
IC50 [1]: 30 µg/mL (≈ 110 µM)
zone of inhibition at 200 µg/disc (Staphylococcus aureus [2]): 11 mm
zone of inhibition at 50 µg/disc (Staphylococcus aureus [3]): 7 mm
IC50 (DU-145): 27 µg/mL (≈ 99.2 µM)
zone of inhibition at 100 µg/disc (Staphylococcus aureus [4]): 9 mm
IC50 (MIA PaCa-2): 24 µg/mL (≈ 88.2 µM)
Activity (Candida albicans): inactive
